The target of the test is T1, Insulin-Degrading Enzyme (IDE) (Homo sapiens, UniProt P14735).
T1 sequence (P14735 42-1019): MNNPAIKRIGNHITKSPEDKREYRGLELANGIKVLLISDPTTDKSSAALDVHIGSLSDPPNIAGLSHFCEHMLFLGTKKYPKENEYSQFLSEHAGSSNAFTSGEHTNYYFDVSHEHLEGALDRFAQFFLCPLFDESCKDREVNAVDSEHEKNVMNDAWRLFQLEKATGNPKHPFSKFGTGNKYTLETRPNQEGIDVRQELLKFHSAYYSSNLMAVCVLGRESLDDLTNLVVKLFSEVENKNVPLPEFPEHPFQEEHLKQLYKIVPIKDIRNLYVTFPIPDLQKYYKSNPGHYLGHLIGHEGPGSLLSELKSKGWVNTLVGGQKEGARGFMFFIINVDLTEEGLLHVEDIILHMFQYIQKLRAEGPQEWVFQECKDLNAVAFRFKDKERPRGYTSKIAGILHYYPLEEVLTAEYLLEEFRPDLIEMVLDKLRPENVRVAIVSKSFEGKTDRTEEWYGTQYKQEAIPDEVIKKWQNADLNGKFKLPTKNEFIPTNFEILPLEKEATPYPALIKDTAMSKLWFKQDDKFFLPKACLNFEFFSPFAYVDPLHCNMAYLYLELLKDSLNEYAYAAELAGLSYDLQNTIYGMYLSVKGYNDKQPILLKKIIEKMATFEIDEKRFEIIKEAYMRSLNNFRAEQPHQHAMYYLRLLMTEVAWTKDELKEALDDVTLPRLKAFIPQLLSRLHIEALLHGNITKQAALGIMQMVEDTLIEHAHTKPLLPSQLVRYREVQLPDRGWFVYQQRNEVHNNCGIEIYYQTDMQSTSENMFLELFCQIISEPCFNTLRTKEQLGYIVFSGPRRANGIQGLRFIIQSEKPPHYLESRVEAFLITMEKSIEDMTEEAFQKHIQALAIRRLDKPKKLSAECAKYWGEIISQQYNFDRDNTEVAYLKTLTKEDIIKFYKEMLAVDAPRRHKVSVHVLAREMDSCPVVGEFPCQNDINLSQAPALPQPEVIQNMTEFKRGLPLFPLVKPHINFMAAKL
Nature of the test: fluorogenic peptide hydrolysis by purified IDE, two-site kinetic fit; LC-MS of insulin hydrolysis (about […] decrease). The class given is biochemical.

By Kd is commonly meant the constant that tells how readily two partners part at equilibrium. Read a low Kd as a tighter complex.

SMILES strings stand for the structures.

`CC(C)C[C@H](NC(=O)[C@H](CCc1ccccc1)NC(=O)CN1CCOCC1)C(=O)N[C@@H](Cc1ccccc1)C(=O)N[C@@H](CC(C)C)C(=O)[C@@]1(C)CO1` [CFZ, Carfilzomib] yielded a Kd of 130 nM.
